Assay results published in patent US8980830B2 (priority 2007, dated 2015).
Several values for one entry are separate records, joined by “and”; a condition that tells them apart may be missing. Identical values can stand only once. One block for each molecule: values may come before it. Bridge positions count the residues as written; N and C are the ends. Square brackets hold non-standard residues; d marks the D form. Peptide text beside a SMILES is read from it. * marks the point of attachment. ξ: configuration not given here. Abu(4-SO3H) = N[C@@H](CCS(=O)(=O)O)C(=O)O; PhLac = O=C(O)[C@@H](O)Cc1ccccc1; ξPhLac = O=C(O)C(O)Cc1ccccc1; Carboxymethyl = O=C(O)C*; CH2CH2COOH = O=C(O)CC*

Target: Glucagon Receptor (Homo sapiens, UniProt P47871)
Sequence (P47871 26-477): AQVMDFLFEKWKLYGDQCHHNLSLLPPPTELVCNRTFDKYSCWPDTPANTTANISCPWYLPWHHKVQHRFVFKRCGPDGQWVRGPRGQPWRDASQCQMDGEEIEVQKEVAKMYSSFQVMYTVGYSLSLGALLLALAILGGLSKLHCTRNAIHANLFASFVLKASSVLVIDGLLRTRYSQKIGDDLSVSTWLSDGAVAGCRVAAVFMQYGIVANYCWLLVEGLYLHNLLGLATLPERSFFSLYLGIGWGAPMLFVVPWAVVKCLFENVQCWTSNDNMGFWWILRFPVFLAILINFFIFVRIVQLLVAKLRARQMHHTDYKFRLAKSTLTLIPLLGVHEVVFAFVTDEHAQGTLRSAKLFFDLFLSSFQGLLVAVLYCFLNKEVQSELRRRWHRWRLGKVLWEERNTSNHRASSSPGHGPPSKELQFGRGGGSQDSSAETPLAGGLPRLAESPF
Assay: cAMP inhibition: antagonism of glucagon-induced cAMP at glucagon receptor
Format: cell-based
Design: expressed in transfected cells; host or cells: HEK293
Conditions: for cAMP pA2: Table 9
[1] = Glucagon antagonism IC50 (nM, inhibit 0.2-0.8 nM glucagon), Table 18

- cAMP pA2: 6.68 ± 1.05
Compound: CSCC[C@H](NC(=O)[C@H](CC(C)C)NC(=O)[C@H](Cc1c[nH]c2ccccc12)NC(=O)[C@H](CCC(N)=O)NC(=O)[C@@H](NC(=O)[C@H](Cc1ccccc1)NC(=O)[C@H](CC(=O)O)NC(=O)[C@H](CCC(N)=O)NC(=O)[C@H](C)NC(=O)[C@H](CCCNC(=N)N)NC(=O)[C@H](CCCNC(=N)N)NC(=O)[C@H](CO)NC(=O)[C@H](CC(=O)O)NC(=O)[C@H](CC(C)C)NC(=O)[C@H](Cc1ccc(O)cc1)NC(=O)[C@H](CCCCN)NC(=O)[C@H](CO)NC(=O)[C@H](Cc1ccc(O)cc1)NC(=O)[C@H](CSCC(=O)O)NC(=O)[C@H](CO)NC(=O)[C@@H](NC(=O)[C@@H](N)Cc1ccccc1)[C@@H](C)O)C(C)C)C(=O)N[C@@H](CC(N)=O)C(=O)N[C@H](C(N)=O)[C@@H](C)O [[(CSA-1)^9]Glucagon(aa6-29)-NH2, [C^9(SCH2COOH)]Glucagon(aa6-29)-NH2] (H-FTSC(Carboxymethyl)YSKYLDSRRAQDFVQWLMNT-NH2; N-terminus assumed)

- cAMP pA2: 6.64 ± 0.29
Compound: CSCC[C@H](NC(=O)[C@H](CC(C)C)NC(=O)[C@H](Cc1c[nH]c2ccccc12)NC(=O)[C@H](CCC(N)=O)NC(=O)[C@@H](NC(=O)[C@H](Cc1ccccc1)NC(=O)[C@H](CC(=O)O)NC(=O)[C@H](CCC(N)=O)NC(=O)[C@H](C)NC(=O)[C@H](CCCNC(=N)N)NC(=O)[C@H](CCCNC(=N)N)NC(=O)[C@H](CO)NC(=O)[C@H](CC(=O)O)NC(=O)[C@H](CC(C)C)NC(=O)[C@H](Cc1ccc(O)cc1)NC(=O)[C@H](CCCCN)NC(=O)[C@H](CO)NC(=O)[C@H](Cc1ccc(O)cc1)NC(=O)[C@H](CSCCC(=O)O)NC(=O)[C@H](CO)NC(=O)[C@@H](NC(=O)[C@@H](N)Cc1ccccc1)[C@@H](C)O)C(C)C)C(=O)N[C@@H](CC(N)=O)C(=O)N[C@H](C(N)=O)[C@@H](C)O [[(CSA-2)^9]Glucagon(aa6-29)-NH2, [C^9(SCH2CH2COOH)]Glucagon(aa6-29)-NH2] (H-FTSC(CH2CH2COOH)YSKYLDSRRAQDFVQWLMNT-NH2; N-terminus assumed)

- IC50 [1]: 423 nM
- character of antagonism (partial antagonist, wrapped cell) (Table 18): partial
Compound: CC[C@H](C)[C@H](NC(=O)[C@H](Cc1ccccc1)NC(=O)[C@H](CCC(=O)O)NC(=O)[C@@H]1CCCCNC(=O)CC[C@H](NC(=O)[C@H](CC(=O)O)NC(=O)[C@H](CC(C)C)NC(=O)[C@H](Cc2ccc(O)cc2)NC(=O)[C@H](CCCCN)NC(=O)[C@H](CO)NC(=O)[C@H](Cc2ccc(O)cc2)NC(=O)[C@H](CCC(=O)O)NC(=O)[C@H](CO)NC(=O)[C@@H](NC(=O)[C@H](Cc2ccccc2)NC(=O)[C@@H](NC(=O)CNC(=O)[C@H](CCC(=O)O)NC(=O)[C@H](C)N)[C@@H](C)O)[C@@H](C)O)C(=O)N[C@@H](CCC(N)=O)C(=O)N[C@@H](C)C(=O)N[C@@H](C)C(=O)N1)C(=O)N[C@@H](C)C(=O)N[C@@H](Cc1c[nH]c2ccccc12)C(=O)N[C@@H](CC(C)C)C(=O)N[C@@H](CCSC)C(=O)N[C@@H](CC(=O)O)C(=O)N[C@H](C(N)=O)[C@@H](C)O [[A2E3, E9, E16K20(Lactam), GLP(23-32)]G(2-29)] (H-AEGTFTSEYSKYLDEQAAKEFIAWLMDT-NH2; lactam 15-19; N-terminus assumed)

- IC50 [1]: 63.2 ± 2.3 nM
Compound: CSCC[C@H](NC(=O)[C@H](CC(C)C)NC(=O)[C@H](Cc1c[nH]c2ccccc12)NC(=O)[C@H](CCC(N)=O)NC(=O)[C@@H](NC(=O)[C@H](Cc1ccccc1)NC(=O)[C@H](CC(=O)O)NC(=O)[C@@H]1CCCCNC(=O)CC[C@H](NC(=O)[C@H](CC(=O)O)NC(=O)[C@H](CC(C)C)NC(=O)[C@H](Cc2ccc(O)cc2)NC(=O)[C@H](CCCCN)NC(=O)[C@H](CO)NC(=O)[C@H](Cc2ccc(O)cc2)NC(=O)[C@H](CCC(=O)O)NC(=O)[C@H](CO)NC(=O)[C@@H](NC(=O)[C@H](Cc2ccccc2)NC(=O)[C@@H](NC(=O)CNC(=O)[C@H](CCC(=O)O)NC(=O)[C@H](C)N)[C@@H](C)O)[C@@H](C)O)C(=O)N[C@@H](CCCNC(=N)N)C(=O)N[C@@H](CCCNC(=N)N)C(=O)N[C@@H](C)C(=O)N1)C(C)C)C(=O)N[C@@H](CC(=O)O)C(=O)N[C@H](C(N)=O)[C@@H](C)O [[A2E3, E16K20(Lactam),D28]G(2 ~ 29)]

Compound: CSCC[C@H](NC(=O)[C@H](CC(C)C)NC(=O)[C@H](Cc1c[nH]c2ccccc12)NC(=O)[C@H](CCC(N)=O)NC(=O)[C@@H](NC(=O)[C@H](Cc1ccccc1)NC(=O)[C@H](CC(=O)O)NC(=O)[C@@H]1CCCCNC(=O)CC[C@H](NC(=O)[C@H](CC(=O)O)NC(=O)[C@H](CC(C)C)NC(=O)[C@H](Cc2ccc(O)cc2)NC(=O)[C@H](CCCCN)NC(=O)[C@H](CO)NC(=O)[C@H](Cc2ccc(O)cc2)NC(=O)[C@H](CCC(=O)O)NC(=O)[C@H](CO)NC(=O)[C@@H](NC(=O)[C@@H](O)Cc2ccccc2)[C@@H](C)O)C(=O)N[C@@H](CCCNC(=N)N)C(=O)N[C@@H](CCCNC(=N)N)C(=O)N[C@@H](C)C(=O)N1)C(C)C)C(=O)N[C@@H](CC(N)=O)C(=O)N[C@H](C(=O)NCC(=O)N1CCC[C@H]1C(=O)N[C@@H](CO)C(=O)N[C@@H](CO)C(=O)NCC(=O)N[C@@H](C)C(=O)N1CCC[C@H]1C(=O)N1CCC[C@H]1C(=O)N1CCC[C@H]1C(=O)N[C@@H](CO)C(N)=O)[C@@H](C)O [[PLA6, E9, E16K20(Lactam)]]
- IC50 (Glucagon antagonism IC50 (nM, inhibit 0.2-0.8 nM glucagon), Table 16, combined results of three assays): 20.5 ± 2.5 nM

- IC50 [1]: 11.7 nM and 73.5 nM
Compound: CC[C@H](C)[C@H](NC(=O)[C@H](Cc1ccccc1)NC(=O)[C@H](CCC(=O)O)NC(=O)[C@@H]1CCCCNC(=O)CC[C@H](NC(=O)[C@H](CC(=O)O)NC(=O)[C@H](CC(C)C)NC(=O)[C@H](Cc2ccc(O)cc2)NC(=O)[C@H](CCCCN)NC(=O)[C@H](CO)NC(=O)[C@H](Cc2ccc(O)cc2)NC(=O)[C@H](CC(=O)O)NC(=O)[C@H](CO)NC(=O)[C@@H](NC(=O)C(O)Cc2ccccc2)[C@@H](C)O)C(=O)N[C@@H](CCC(N)=O)C(=O)N[C@@H](C)C(=O)N[C@@H](C)C(=O)N1)C(=O)N[C@@H](C)C(=O)N[C@@H](Cc1c[nH]c2ccccc12)C(=O)N[C@@H](CC(C)C)C(=O)N[C@@H](CCSC)C(=O)N[C@@H](CC(=O)O)C(=O)N[C@H](C(N)=O)[C@@H](C)O (stereo partly shown) [[PLA6, E16K20(lactam), GLP(23-32)]G(6-29)] (H-[ξPhLac]TSDYSKYLDEQAAKEFIAWLMDT-NH2; lactam 11-15)

- IC50 (Glucagon antagonism IC50(nM, inhibit 0.5nM G), Table 25): 14.2 ± 7.89 nM
Compound: CSCC[C@H](NC(=O)[C@H](CC(C)C)NC(=O)[C@H](Cc1c[nH]c2ccccc12)NC(=O)[C@H](CCC(N)=O)NC(=O)[C@@H](NC(=O)[C@H](Cc1ccccc1)NC(=O)[C@H](CC(=O)O)NC(=O)[C@H](CCC(N)=O)NC(=O)[C@H](C)NC(=O)[C@H](CCCNC(=N)N)NC(=O)[C@H](CCCNC(=N)N)NC(=O)[C@H](CO)NC(=O)[C@H](CC(=O)O)NC(=O)[C@H](CC(C)C)NC(=O)[C@H](Cc1ccc(O)cc1)NC(=O)[C@H](CCCCN)NC(=O)[C@H](CO)NC(=O)[C@H](Cc1ccc(O)cc1)NC(=O)[C@H](CCC(=O)O)NC(=O)[C@H](CO)NC(=O)[C@@H](NC(=O)[C@H](Cc1ccccc1)OC(=O)[C@@H](NC(=O)CNC(=O)[C@H](CCC(N)=O)NC(=O)[C@H](CO)NC(=O)[C@@H](N)Cc1c[nH]cn1)[C@@H](C)O)[C@@H](C)O)C(C)C)C(=O)N[C@@H](CC(N)=O)C(=O)N[C@H](C(N)=O)[C@@H](C)O [[Thr5-O-PLA6,E9]Glucagon(1-29)] (H-HSQGT[PhLac]TSEYSKYLDSRRAQDFVQWLMNT-NH2; N-terminus assumed)

- glucagon antagonism, in words: some level of antagonism
Compound: CC(C)C[C@H](NC(=O)[C@H](Cc1ccc(O)cc1)NC(=O)[C@H](CCCCN)NC(=O)[C@H](CO)NC(=O)[C@H](Cc1ccc(O)cc1)NC(=O)[C@H](CCS(=O)(=O)O)NC(=O)[C@H](CO)NC(=O)[C@@H](NC(=O)[C@H](Cc1ccccc1)NC(=O)[C@@H](NC(=O)[C@H](CC(C)C)NC(=O)[C@H](CCC(N)=O)NC(=O)[C@@H](N)CO)[C@@H](C)O)[C@@H](C)O)C(=O)N[C@@H](CC(=O)O)C(=O)N[C@@H](CO)C(=O)N[C@@H](CCCNC(=N)N)C(=O)N[C@@H](CCCNC(=N)N)C(=O)N[C@@H](C)C(=O)N[C@@H](CCC(N)=O)C(=O)N[C@@H](CC(=O)O)C(=O)N[C@@H](Cc1ccccc1)C(=O)N[C@H](C(=O)N[C@@H](CCC(N)=O)C(=O)N[C@@H](Cc1ccccc1)C(=O)N[C@@H](CC(C)C)C(=O)N[C@@H](CC(C)C)C(=O)N[C@@H](CC(N)=O)C(=O)N[C@H](C(N)=O)[C@@H](C)O)C(C)C [[desHis^1, Leu^4, hCys^9(SO3−), Phe^25, Leu^27] Glucagon-NH2] (H-SQLTFTS[Abu(4-SO3H)]YSKYLDSRRAQDFVQFLLNT-NH2; N-terminus assumed)

- glucagon antagonism, in words: some level of antagonism
Compound: CC(C)C[C@H](NC(=O)[C@H](Cc1ccc(O)cc1)NC(=O)[C@H](CCCCN)NC(=O)[C@H](CO)NC(=O)[C@H](Cc1ccc(O)cc1)NC(=O)[C@H](CCS(=O)(=O)O)NC(=O)[C@H](CO)NC(=O)[C@@H](NC(=O)[C@@H](NC(=O)CNC(=O)[C@H](CCC(N)=O)NC(=O)[C@@H](N)CO)[C@@H](C)O)[C@@H](C)O)C(=O)N[C@@H](CC(=O)O)C(=O)N[C@@H](CO)C(=O)N[C@@H](CCCNC(=N)N)C(=O)N[C@@H](CCCNC(=N)N)C(=O)N[C@@H](C)C(=O)N[C@@H](CCC(N)=O)C(=O)N[C@@H](CC(=O)O)C(=O)N[C@@H](Cc1ccccc1)C(=O)N[C@H](C(=O)N[C@@H](CCC(N)=O)C(=O)N[C@@H](Cc1ccccc1)C(=O)N[C@@H](CC(C)C)C(=O)N[C@@H](CC(C)C)C(=O)N[C@@H](CC(N)=O)C(=O)N[C@H](C(N)=O)[C@@H](C)O)C(C)C [[desHis^1, desPhe^6, hCys^9(SO3−), Phe^25, Leu^27] Glucagon-NH2] (H-SQGTTS[Abu(4-SO3H)]YSKYLDSRRAQDFVQFLLNT-NH2; N-terminus assumed)
